Each structure is given as a SMILES string.

In one assay the test system is adenosine A1 receptors.
Assay: not given
To be noted: cited from earlier work.
Turning to `NC(=O)N1c2ccccc2C=Cc2ccccc21` [carbamazepine], the “antagonistic properties at adenosine A1 receptors” value is on record as “marginal”.

The target in another assay is T1, Rat A1 adenosine receptor (Rattus norvegicus, UniProt P25099).
T1 construct: A1 adenosine receptors isolated from rats; from tissue
T1 sequence (P25099 1-326): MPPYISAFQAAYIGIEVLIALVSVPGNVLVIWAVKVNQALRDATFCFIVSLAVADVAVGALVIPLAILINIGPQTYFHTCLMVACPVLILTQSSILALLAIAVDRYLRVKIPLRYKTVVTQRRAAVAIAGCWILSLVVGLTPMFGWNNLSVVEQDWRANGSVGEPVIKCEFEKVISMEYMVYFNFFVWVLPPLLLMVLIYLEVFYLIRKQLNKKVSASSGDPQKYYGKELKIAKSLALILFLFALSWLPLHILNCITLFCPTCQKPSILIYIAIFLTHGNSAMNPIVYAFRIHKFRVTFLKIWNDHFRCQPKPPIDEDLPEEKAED
In words: Affinity for A1 adenosine receptors isolated from rats.
Details: not given
It counts as binding. The text has this: These methods are known in the art. For example, the synthesis of these compounds can be guided by U.S. Pat. No. 5,248,770 or by Jacobson et al., Journal of Medicinal Chemistry, 28, 1341-1346 (1985).
As usually defined, the Ki is a measure of affinity in units of concentration, obtained from inhibition or displacement. Read a high Ki as weaker binding. Molecule `Cc1ccc(C(=O)NCCCNC(=O)Cc2ccc(NC(=O)Cc3ccc(Nc4ncnc5c4ncn5[C@@H]4O[C@H](CO)[C@@H](O)[C@H]4O)cc3)cc2)cc1` [compound 5] gave a Ki of 5.67 ± 0.055 nM.
The same measure, in the same setting: with `NCCCCNC(=O)Cc1ccc(NC(=O)Cc2ccc(Nc3ncnc4c3ncn4[C@@H]3O[C@H](CO)[C@@H](O)[C@H]3O)cc2)cc1` the figure was 1.91 ± 0.17 nM.
On the same count and under the same terms, next, `Cc1ccc(C(=O)NCCNC(=O)Cc2ccc(NC(=O)Cc3ccc(Nc4ncnc5c4ncn5[C@@H]4O[C@H](CO)[C@@H](O)[C@H]4O)cc3)cc2)cc1` [compound 4]: 11.9 ± 2 nM; `NCCCNC(=O)Cc1ccc(NC(=O)Cc2ccc(Nc3ncnc4c3ncn4[C@@H]3O[C@H](CO)[C@@H](O)[C@H]3O)cc2)cc1`: 1.96 ± 0.06 nM.
On the same count and under the same terms, next, `Cc1ccc(C(=O)NCCCCNC(=O)Cc2ccc(NC(=O)Cc3ccc(Nc4ncnc5c4ncn5[C@@H]4O[C@H](CO)[C@@H](O)[C@H]4O)cc3)cc2)cc1` [compound 6]: 7.95 ± 0.76 nM.

(Values after patent publication US6316423A, “Method of treating ischemic, hypoxic and anoxic brain damage” (priority 1999, dated 2001).)
